Test results as given in US9562031B1, “Phenethyldihydrobenzodioxolones and methods of use” (Sequoia Sciences, Inc., priority 2015, dated 2017).
Read-outs that look alike come from different tables or passages of the source. Values belong to the compound of their own block, whether it stands above or below them.

What was measured:
[1] = test system: NCI-H460 (large cell lung carcinoma) cells; assay: antiproliferation assay (72 h, CELLTITER 96), NCI-H460; assay type: cell-based, human; settings: Homo sapiens, read-out: NCI-H460 IC50
Method in brief: (§1)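 Human M14 melanoma and NCI-H460 lung carcinoma cells in RPMI-1640/10% FBS, seeded at 5×10^2–5×10^4 cells/well and adhered overnight, then exposed to seven compound concentrations for 72 h at 37 °C. Viable cells read by CellTiter 96 AQueous (MTS); IC50 = concentration giving 50% of maximal growth inhibition.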

[2] = test system: M14 (amelanotic melanoma) cells; assay: antiproliferation assay (72 h, CELLTITER 96), M14; assay type: cell-based, human; settings: Homo sapiens
Method in brief: as §1

Compound: COc1cc(F)c(CC(C)[C@]23C[C@H](C)C(=O)C=C2OCO3)cc1F (stereo partly drawn) [Compound 56, (6S,7aR)-7a-(1-(2,5-difluoro-4-methoxyphenyl)propan-2-yl)-6-methyl-7,7a-dihydrobenzo[d][1,3]dioxol-5(6H)-one]
IC50 ([1]; NCI-H460, Table 7): 0.43 µM | IC50 ([2]; Table 7): 0.14 µM

Compound: C=CCOc1cc(C[C@@H](C)[C@]23C[C@H](CC=C)C(=O)C=C2OCO3)c(F)cc1OC [Compound 16, (6S,7aR)-6-allyl-7a-((R)-1-(5-(allyloxy)-2-fluoro-4-methoxyphenyl)propan-2-yl)-7,7a-dihydrobenzo[d][1,3]dioxol-5(6H)-one]
IC50 ([1]; NCI-H460, Table 3): 0.62 µM | IC50 ([2]; Table 3): 0.52 µM

Compound: C=CC[C@H]1C[C@]2(C(C)Cc3cc(NC(C)=O)c(OC)cc3F)OCOC2=CC1=O (stereo in doubt) [Compound 19, N-(5-((S)-2-((3aR,5S)-5-allyl-6-oxo-3a,4,5,6-tetrahydrobenzo[d][1,3]dioxol-3a-yl)propyl)-4-fluoro-2-methoxyphenyl)acetamide]
IC50 ([1]; NCI-H460, Table 3): 0.071 µM | IC50 ([2]; Table 3): 0.052 µM

Compound: C=CC[C@H]1C[C@]2([C@@H](C)Cc3cc(N)c(OC)cc3F)OCOC2=CC1=O [Compound 17, (6S,7aR)-6-allyl-7a-((S)-1-(5-amino-2-fluoro-4-methoxyphenyl)propan-2-yl)-7,7a-dihydrobenzo[d][1,3]dioxol-5(6H)-one]
IC50 ([1]; NCI-H460, Table 3): 0.16 µM | IC50 ([2]; Table 3): 0.029 µM

Compound: C=CC[C@H]1C[C@]2([C@H](C)Cc3ccc(OC)cc3F)OCOC2=CC1=O (relative stereo) [Compound 3, 6-allyl-7a-(1-(2-fluoro-4-methoxyphenyl)propan-2-yl)-7,7a-dihydrobenzo[d][1,3]dioxol-5(6H)-one]
IC50 ([1]; NCI-H460, Table 3): 0.077 µM | IC50 ([2]; Table 3): 0.013 µM

Compound: C=CC[C@H]1C[C@]2([C@@H](C)Cc3cc(F)c(OC)cc3F)OCOC2=CC1=O [Compound 7, (6S,7aR)-6-allyl-7a-((S)-1-(2,5-difluoro-4-methoxyphenyl)propan-2-yl)-7,7a-dihydrobenzo[d][1,3]dioxol-5(6H)-one]
IC50 ([1]; NCI-H460, Table 3): 0.059 µM | IC50 ([2]; Table 3): 0.023 µM

Compound: C=CC[C@H]1C[C@]2([C@@H](C)Cc3ccc(OC(F)(F)F)cc3)OCOC2=CC1=O [Compound 41, (6S,7aR)-6-allyl-7a-((S)-1-(4-(trifluoromethoxy)phenyl)propan-2-yl)-7,7a-dihydrobenzo[d][1,3]dioxol-5(6H)-one]
IC50 ([1]; NCI-H460, Table 5): 3.8 µM | IC50 ([2]; Table 5): > 20 µM

Compound: C=CC[C@H]1C[C@]2(C(C)Cc3ccc(OC)c(N)c3)OCOC2=CC1=O (stereo partly drawn) [Compound 34, (6S,7aR)-6-allyl-7a-(1-(3-amino-4-methoxyphenyl)propan-2-yl)-7,7a-dihydrobenzo[d][1,3]dioxol-5(6H)-one]
IC50 ([1]; NCI-H460, Table 4): 0.18 µM | IC50 ([2]; Table 4): 0.049 µM

Compound: C=CC[C@H]1C[C@]2([C@@H](C)Cc3cc(F)c(N(C)C)cc3F)OCOC2=CC1=O [Compound 48, (6S,7aR)-6-allyl-7a-((S)-1-(4-(dimethylamino)-2,5-difluorophenyl)propan-2-yl)-7,7a-dihydrobenzo[d][1,3]dioxol-5(6H)-one]
IC50 ([1]; NCI-H460, Table 5): 0.33 µM | IC50 ([2]; Table 5): 0.07 µM

Compound: C=CC[C@H]1C[C@]2([C@H](C)Cc3ccc(OC)c(Cl)c3)OCOC2=CC1=O [Compound 39, (6S,7aR)-6-allyl-7a-((R)-1-(3-chloro-4-methoxyphenyl)propan-2-yl)-7,7a-dihydrobenzo[d][1,3]dioxol-5(6H)-one]
IC50 ([1]; NCI-H460, Table 4): 0.42 µM | IC50 ([2]; Table 4): 0.13 µM

Compound: C=CC[C@H]1C[C@]2([C@H](C)Cc3cc(C(=O)NC)c(OC)cc3F)OCOC2=CC1=O [Compound 13, 5-((R)-2-((3aR,5S)-5-allyl-6-oxo-3a,4,5,6-tetrahydrobenzo[d][1,3]dioxol-3a-yl)propyl)-4-fluoro-2-methoxy-N-methylbenzamide]
IC50 ([1]; NCI-H460, Table 3): 0.37 µM | IC50 ([2]; Table 3): 0.19 µM

Compound: C=CC[C@H]1C[C@]2([C@@H](C)Cc3ccc(OC)c(Cl)c3)OCOC2=CC1=O [Compound 38, (6S,7aR)-6-allyl-7a-((S)-1-(3-chloro-4-methoxyphenyl)propan-2-yl)-7,7a-dihydrobenzo[d][1,3]dioxol-5(6H)-one]
IC50 ([1]; NCI-H460, Table 4): 0.64 µM | IC50 ([2]; Table 4): 0.24 µM

Other lines, results leading:

IC50 ([1]; NCI-H460, Table 5): > 20 µM | IC50 ([2]; Table 5): > 20 µM
Compound: C=CC[C@H]1C[C@]2([C@H](C)Cc3ccc(OCCOC)c(F)c3)OCOC2=CC1=O [Compound 101, (6S,7aR)-6-allyl-7a-((R)-1-(3-fluoro-4-(2-methoxyethoxy)phenyl)propan-2-yl)-7,7a-dihydrobenzo[d][1,3]dioxol-5(6H)-one]

IC50 ([1]; NCI-H460, Table 7): 0.17 µM | IC50 ([2]; Table 7): 0.058 µM
Compound: CCC[C@H]1C[C@]2([C@@H](C)Cc3cc(O)c(OC)cc3F)OCOC2=CC1=O [Compound 59]

IC50 ([1]; NCI-H460, Table 7): 0.068 µM | IC50 ([2]; Table 7): 0.044 µM
Compound: C=C[C@@H](C)[C@H]1C[C@]2([C@@H](C)Cc3ccc(OC)cc3F)OCOC2=CC1=O [Compound 112, (6R,7aR)-6-((R)-but-3-en-2-yl)-7a-((S)-1-(2-fluoro-4-methoxyphenyl)propan-2-yl)-7,7a-dihydrobenzo[d][1,3]dioxol-5(6H)-one]

IC50 ([1]; NCI-H460, Table 7): > 4 µM | IC50 ([2]; Table 7): 7.4 µM
Compound: CCC[C@H]1C[C@]2([C@@H](C)Cc3ccc(OC)c(OC)c3)OCOC2=CC1=O [Compound 70, (6S,7aR)-7a-((S)-1-(3,4-dimethoxyphenyl)propan-2-yl)-6-propyl-7,7a-dihydrobenzo[d][1,3]dioxol-5(6H)-one]

IC50 ([1]; NCI-H460, Table 7): 0.22 µM | IC50 ([2]; Table 7): 0.14 µM
Compound: C=C(F)C[C@H]1C[C@]2([C@@H](C)Cc3cc(F)c(OC)cc3F)OCOC2=CC1=O [Compound 64, (6R,7aR)-7a-((S)-1-(2,5-difluoro-4-methoxyphenyl)propan-2-yl)-6-(2-fluoroallyl)-7,7a-dihydrobenzo[d][1,3]dioxol-5(6H)-one]

IC50 ([1]; NCI-H460, Table 5): 0.19 µM | IC50 ([2]; Table 5): 0.12 µM
Compound: C=CC[C@H]1C[C@]2([C@@H](C)Cc3cc(F)c(SC)cc3F)OCOC2=CC1=O [Compound 116, (6S,7aR)-6-allyl-7a-((S)-1-(2,5-difluoro-4-(methylthio)phenyl)propan-2-yl)-7,7a-dihydrobenzo[d][1,3]dioxol-5(6H)-one]

IC50 ([1]; NCI-H460, Table 7): 2.5 µM | IC50 ([2]; Table 7): 1.6 µM
Compound: COc1cc(F)c(C[C@H](C)[C@]23C[C@H](Cc4ccco4)C(=O)C=C2OCO3)cc1O [Compound 113, (6S,7aR)-7a-((S)-1-(2-fluoro-5-hydroxy-4-methoxyphenyl)propan-2-yl)-6-(furan-2-ylmethyl)-7,7a-dihydrobenzo[d][1,3]dioxol-5(6H)-one]

IC50 ([1]; NCI-H460, Table 7): > 20 µM | IC50 ([2]; Table 7): 11.3 µM
Compound: CCS[C@H]1C[C@]2([C@@H](C)Cc3ccc(OC)cc3F)OCOC2=CC1=O [Compound 115, (6S,7aR)-6-(ethylthio)-7a-((S)-1-(2-fluoro-4-methoxyphenyl)propan-2-yl)-7,7a-dihydrobenzo[d][1,3]dioxol-5(6H)-one]

IC50 ([1]; NCI-H460, Table 7): 0.55 µM | IC50 ([2]; Table 7): 0.11 µM
Compound: CC[C@H](C)[C@H]1C[C@]2([C@@H](C)Cc3cc(O)c(OC)cc3F)OCOC2=CC1=O [Compound 77, (6R,7aR)-6-((S)-sec-butyl)-7a-((S)-1-(2-fluoro-5-hydroxy-4-methoxyphenyl)propan-2-yl)-7,7a-dihydrobenzo[d][1,3]dioxol-5(6H)-one]

IC50 ([1]; NCI-H460, Table 7): 2.6 µM | IC50 ([2]; Table 7): 1.6 µM
Compound: COc1cc(F)c(C[C@H](C)[C@]23C[C@H](Cc4ccccc4)C(=O)C=C2OCO3)cc1O [Compound 66, (6S,7aR)-6-benzyl-7a-((S)-1-(2-fluoro-5-hydroxy-4-methoxyphenyl)propan-2-yl)-7,7a-dihydrobenzo[d][1,3]dioxol-5(6H)-one]

IC50 ([1]; NCI-H460, Table 7): 0.2 µM | IC50 ([2]; Table 7): 0.14 µM
Compound: CC[C@H]1C[C@]2([C@@H](C)Cc3cc(F)c(OC)cc3F)OCOC2=CC1=O [Compound 57]

IC50 ([1]; NCI-H460, Table 8): 2.6 µM | IC50 ([2]; Table 8): > 20 µM
Compound: C=CC[C@H]1C[C@]2([C@H](C)Cc3ccc(OC)c4occc34)OCOC2=CC1=O [Compound 84, (6S,7aR)-6-allyl-7a-((R)-1-(7-methoxybenzofuran-4-yl)propan-2-yl)-7,7a-dihydrobenzo[d][1,3]dioxol-5(6H)-one]

IC50 ([1]; NCI-H460, Table 7): 0.073 µM | IC50 ([2]; Table 7): 0.2 µM
Compound: C#CC[C@H]1C[C@]2([C@@H](C)Cc3ccc(OC)cc3F)OCOC2=CC1=O [Compound 62, (6S,7aR)-7a-((S)-1-(2-fluoro-4-methoxyphenyl)propan-2-yl)-6-(prop-2-yn-1-yl)-7,7a-dihydrobenzo[d][1,3]dioxol-5(6H)-one]

IC50 ([1]; NCI-H460, Table 7): 8 µM | IC50 ([2]; Table 7): 7 µM
Compound: COc1ccc(C[C@H](C)[C@]23C[C@H](CC=C(C)C)C(=O)C=C2OCO3)cc1OC [Compound 90]

IC50 ([1]; NCI-H460, Table 3): > 20 µM | IC50 ([2]; Table 3): > 20 µM
Compound: C=CC[C@H]1C[C@]2([C@@H](C)Cc3cc(C(=O)N(C)C)c(OC)cc3F)OCOC2=CC1=O [Compound 94, 5-((S)-2-((3aR,5S)-5-allyl-6-oxo-3a,4,5,6-tetrahydrobenzo[d][1,3]dioxol-3a-yl)propyl)-4-fluoro-2-methoxy-N,N-dimethylbenzamide]
